Consider 19 molecules from ChEMBL document CHEMBL5620356, “Sulfur-fluoride exchange (SuFEx)-enabled lead discovery of AChE inhibitors by fragment linking strategies” (Eur J Med Chem, 2023).

Active and inactive are the calls of the source. The calls are words filed in the database; no cut-off is given here.

For series [1], the target named is T1, Acetylcholinesterase (Electrophorus electricus, UniProt O42275). Kind of series: Inhibition of electric eel AChE incubated overnight by two fold serial dilution method.
T1 sequence (O42275 whole entry): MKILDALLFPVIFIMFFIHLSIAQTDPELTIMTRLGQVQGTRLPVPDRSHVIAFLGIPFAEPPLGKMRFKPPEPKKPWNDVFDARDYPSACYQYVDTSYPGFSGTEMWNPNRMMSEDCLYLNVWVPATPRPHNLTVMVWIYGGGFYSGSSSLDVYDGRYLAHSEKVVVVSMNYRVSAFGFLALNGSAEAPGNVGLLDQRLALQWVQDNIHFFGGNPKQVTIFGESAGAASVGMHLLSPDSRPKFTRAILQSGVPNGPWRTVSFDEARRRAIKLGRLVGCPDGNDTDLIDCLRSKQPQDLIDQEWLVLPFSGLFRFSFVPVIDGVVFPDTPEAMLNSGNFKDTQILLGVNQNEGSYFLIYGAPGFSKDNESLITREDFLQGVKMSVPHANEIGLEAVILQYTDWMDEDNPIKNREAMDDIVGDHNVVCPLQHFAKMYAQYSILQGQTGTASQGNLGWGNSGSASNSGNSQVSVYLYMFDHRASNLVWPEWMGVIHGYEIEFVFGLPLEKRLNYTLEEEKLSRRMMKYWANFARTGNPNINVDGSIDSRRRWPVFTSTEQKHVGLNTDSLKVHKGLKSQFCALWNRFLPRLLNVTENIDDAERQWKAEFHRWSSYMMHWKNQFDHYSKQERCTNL
In series [2] the target is T1, Acetylcholinesterase. Kind of series: Inhibition of electric eel AChE using acetylthiocholine iodide as substrate preincubated for 20 mins followed by substrate addition and measured after 20 mins by DTNB reagent based Ellman's method. For orientation: In Ellman's method for cholinesterases, released thiocholine reacts with DTNB.
The next series concerns the target Cholinesterase (Equus caballus, UniProt P81908). Kind of series: Inhibition of equine serum BuChE using butyrylthiocholine iodide as substrate preincubated for 20 mins followed by substrate addition and measured after 20 mins by DTNB reagent based Ellman's method. The series is classed as cell-free.
The nature of series [3]: Permeability of the compound in PBS at pH 7.4 by incubated for 18 hrs by […] assay based UV- spectroscopy. As to conditions: read-out: permeability. The class given is ADME. (In PAMPA a lipid-coated filter parts donor from acceptor wells.)
The subject of another series is PC-12. Description: Neuroprotective activity against H2O2-induced injury in rat PC12 cells assessed as increase in cell viability at 25 uM preincubated for 3 hrs followed by H2O2 addition and measured after 24 hrs by MTT assay relative to control. The series is classed as functional. As to conditions: time 27 hrs. In general terms: Formazan colour is commonly taken as a measure of viable cells.

In series [4] the test system is Mus musculus. Description: Neuroprotective activity against amyloid beta 1-42 peptide induced ICR mouse assessed as decrease in cognitive function impairment at 5 mg/kg,po administration. The class given is functional, organism-based.
The subject of series [5] is Mus musculus. Description: Neuroprotective activity against amyloid beta 1-42 peptide induced ICR mouse assessed as reduction in latency at 5 mg/kg,po administration. The series is classed as functional, organism-based.
The target in series [6] is T1, Acetylcholinesterase. Kind of series: Inhibition of electric eel AChE assessed as inhibition constant using acetylthiocholine iodide as substrate by Lineweaver-Burk plot analysis.
The test system of series [7] is Mus musculus. Kind of series: Neuroprotective activity against amyloid beta 1-42 peptide induced ICR mouse assessed as increase in number of neurons in hippocampus at 5 mg/kg,po administration by hematoxylin-eosin staining based microscopic analysis. The series is classed as functional, organism-based.
For series [8], the target named is Acetylcholinesterase (Electrophorus electricus) (UniProt O42275). Description: Inhibition of electric eel AChE using acetylthiocholine iodide as substrate at 20 uM preincubated for 20 mins followed by substrate addition and measured after 20 mins by DTNB reagent based Ellman's method. Conditions: time 40.0 min.
Sequence of Acetylcholinesterase (Electrophorus electricus) (O42275 24-633 limits assumed): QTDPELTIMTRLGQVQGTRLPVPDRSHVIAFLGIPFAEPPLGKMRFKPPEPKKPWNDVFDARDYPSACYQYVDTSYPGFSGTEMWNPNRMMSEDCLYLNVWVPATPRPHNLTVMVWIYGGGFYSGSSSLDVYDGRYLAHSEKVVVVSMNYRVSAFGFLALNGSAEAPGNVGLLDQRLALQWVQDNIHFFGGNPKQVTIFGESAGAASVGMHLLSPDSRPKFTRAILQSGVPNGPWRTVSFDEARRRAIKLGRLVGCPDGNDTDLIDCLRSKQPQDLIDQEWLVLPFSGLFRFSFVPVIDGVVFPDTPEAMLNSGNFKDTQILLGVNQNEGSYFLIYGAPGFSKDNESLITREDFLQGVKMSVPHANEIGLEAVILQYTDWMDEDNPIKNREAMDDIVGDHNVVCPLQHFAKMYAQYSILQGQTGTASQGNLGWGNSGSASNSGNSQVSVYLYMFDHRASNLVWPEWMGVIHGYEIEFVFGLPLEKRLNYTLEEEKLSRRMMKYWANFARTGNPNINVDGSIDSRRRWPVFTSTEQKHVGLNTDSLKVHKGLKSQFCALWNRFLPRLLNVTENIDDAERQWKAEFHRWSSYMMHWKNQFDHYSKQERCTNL
For series [9], the target named is Cholinesterase (Equus caballus) (UniProt P81908). Kind of series: Inhibition of equine serum BuChE using butyrylthiocholine iodide as substrate at 20 uM preincubated for 20 mins followed by substrate addition and measured after 20 mins by DTNB reagent based Ellman's method. As to conditions: time 40.0 min. The series is classed as cell-free.
Sequence of Cholinesterase (Equus caballus) (P81908 whole entry): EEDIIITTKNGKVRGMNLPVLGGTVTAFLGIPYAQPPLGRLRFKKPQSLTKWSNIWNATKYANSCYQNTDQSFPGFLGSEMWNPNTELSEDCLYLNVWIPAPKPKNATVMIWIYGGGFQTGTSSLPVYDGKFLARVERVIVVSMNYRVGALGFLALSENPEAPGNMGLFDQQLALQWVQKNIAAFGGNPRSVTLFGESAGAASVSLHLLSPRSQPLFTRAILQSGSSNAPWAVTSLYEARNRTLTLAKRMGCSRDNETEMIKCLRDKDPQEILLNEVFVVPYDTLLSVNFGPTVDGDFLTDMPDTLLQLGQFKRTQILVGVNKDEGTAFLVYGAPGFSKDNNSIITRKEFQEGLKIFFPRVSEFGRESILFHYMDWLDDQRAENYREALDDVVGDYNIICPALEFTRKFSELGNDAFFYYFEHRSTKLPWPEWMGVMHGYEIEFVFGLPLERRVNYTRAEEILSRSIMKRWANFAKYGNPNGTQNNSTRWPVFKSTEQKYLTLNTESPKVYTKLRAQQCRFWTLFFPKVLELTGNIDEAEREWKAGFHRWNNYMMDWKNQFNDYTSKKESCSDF

Sequence of Cholinesterase (P81908 whole entry): as above

As for `CN1C(=O)C(F)=C[C@@H]2[C@H]1C[C@H]2S(=O)(=O)NCCc1ccc(F)cc1`, the IC50 (in general, the concentration that gives 50% inhibition) against Acetylcholinesterase [1] was 3.37 µM; against Acetylcholinesterase [2], 4.56 µM.

As for `CCCNS(=O)(=O)[C@@H]1C[C@@H]2[C@H]1C=C(F)C(=O)N2C`, the IC50 stood at 5.59 µM against Acetylcholinesterase [1] and 6.78 µM at Acetylcholinesterase [2].

As for `CN1C(=O)C(F)=C[C@@H]2[C@H]1C[C@H]2S(=O)(=O)N1CCOCC1`, the results for the 50% inhibitory concentration (IC50) at Acetylcholinesterase [1] and against Acetylcholinesterase [2] were 1.8 µM and 1.3 µM, respectively.

`CN1C(=O)C(F)=C[C@@H]2[C@H]1C[C@H]2S(=O)(=O)CC1CCN(Cc2ccccc2F)CC1`: the IC50 on Acetylcholinesterase [1] came to 5.06 µM; against Acetylcholinesterase [2] it was 5.38 µM.

`CN1C(=O)c2ccccc2[C@@H]2[C@H]1C[C@H]2S(=O)(=O)F` came in with an IC50 at Cholinesterase of 12 µM.

On to `CN1C(C(=O)Nc2ccccn2)=C(O)c2ccccc2S1(=O)=O` [PIROXICAM], for which the Papp at 18 h in series [3] was 9.9 ×10⁻⁶ cm/s.

Consider `O=C1N[C@@H]2C[C@@H](S(=O)(=O)NCCC3CCN(Cc4ccccc4)CC3)[C@@H]2c2c(Br)cccc21`, for which the IC50 on Acetylcholinesterase [1] came out at 0.28 µM; at Acetylcholinesterase [2], 0.24 µM. The Papp at 18 h in [3] came to 10 ×10⁻⁶ cm/s.

Consider `CC(=O)[C@H]1CC[C@H]2[C@@H]3CCC4=CC(=O)CC[C@]4(C)[C@H]3CC[C@]12C` [PROGESTERONE], for which the Papp at 18 h in [3] was determined as 16.4 ×10⁻⁶ cm/s.

For `CN1C(=O)C(F)=C[C@@H]2[C@H]1C[C@H]2S(=O)(=O)NCCc1ccccc1F`, the IC50 on Acetylcholinesterase [1] turned out to be 12.5 µM; against Acetylcholinesterase [2], 10.8 µM.

For the molecule `O=C1N[C@@H]2C[C@@H](S(=O)(=O)NCCC3CCN(Cc4ccccc4)CC3)[C@@H]2c2c(Cl)cccc21`, the IC50 at Acetylcholinesterase [1] came to 0.099 µM; on Acetylcholinesterase [2], 0.094 µM. In addition, the Activity with PC-12 came out at 77.2%. The outcome in the series with Mus musculus [4], with Mus musculus [5] and in the series with Mus musculus [7] was Active. In addition, the Papp at 18 h in series [3] was found to be 13.1 ×10⁻⁶ cm/s. Besides, the Ki (commonly the dissociation constant of the complex between target and ligand, obtained from inhibition or displacement) at Acetylcholinesterase [6] was 0.128 µM.

Turning to `Cc1ccc2c(c1)[C@H]1[C@H](S(=O)(=O)F)C[C@H]1NC2=O`, 5.03 µM corresponded to half-maximal inhibition at Cholinesterase (IC50).

Molecule `CN1C(=O)C(F)=C[C@@H]2[C@H]1C[C@H]2S(=O)(=O)F` gave an IC50 against Acetylcholinesterase [2] of 18.8 µM.

On to `CN1C(=O)C(F)=C[C@@H]2[C@H]1C[C@H]2S(=O)(=O)NCCC1CCN(Cc2ccccc2)CC1`, for which the IC50 was found to be 0.34 µM against Acetylcholinesterase [1] and 0.38 µM at Acetylcholinesterase [2]. Moreover, in series [3], the Papp at 18 h turned out to be 12.3 ×10⁻⁶ cm/s.

Consider `CN1C(=O)C(F)=C[C@@H]2[C@H]1C[C@@]2(Br)S(=O)(=O)F`, for which, at Cholinesterase, 14 µM corresponded to half-maximal inhibition (IC50).

As to `CN1C(=O)C(F)=C[C@@H]2[C@H]1C[C@H]2S(=O)(=O)N1CCC(Cc2ccc(F)cc2)CC1`, the IC50 against Acetylcholinesterase [1] worked out at 8.35 µM; at Acetylcholinesterase [2] it was 7.87 µM.

As to `C[C@]12CC[C@H]3[C@@H](CCC4=CC(=O)CC[C@@]43C)[C@@H]1CC[C@@H]2O` [TESTOSTERONE], the Papp at 18 h in series [3] amounted to 1.8 ×10⁻⁶ cm/s.

`CC1=C[C@@H]2[C@@H](C[C@@]2(Br)S(=O)(=O)F)N(C)C1=O` gave an IC50 on Cholinesterase of 10.7 µM.

Consider `O=C1N[C@@H]2C[C@@H](S(=O)(=O)F)[C@@H]2c2c(Cl)cccc21`, for which the half-inhibitory concentration (IC50) against Acetylcholinesterase [2] came to 6.82 µM; against Cholinesterase it was 7.98 µM. In addition, the inhibition result in series [8] and in [9] was “Active” in each case.

As for `O=C1N[C@@H]2C[C@@H](S(=O)(=O)F)[C@@H]2c2c(Br)cccc21`, the inhibition entry in series [8] and in series [9] was “Active” each time. Besides, the IC50 against Cholinesterase is 3.3 µM.
